Assay results reported in article PMC3407958 (Pharmacotherapy, 2010).
Like-named read-outs stand apart in the source and are kept apart here. Marks after values point to notes of the source that are not given here.

What was measured:
[1] = clinical; details: human, in vivo
[2] = human, in vivo
[3] = human, in vivo; remark: listed apart in the source
[4] = system: intestinal and hepatic CYP3A; details: cited from earlier work
[5] = system: CYP3A; format: in vivo, human (healthy volunteers); details: for Cl/F / AUC(0-inf): geometric mean (90% CI); for AUC(0-inf): AUC0-∞, midazolam 8 mg single oral dose
[6] = three weeks of garlic caplet supplementation; cited from earlier work
[7] = Post-Echinacea/Pre-Echinacea, GMR (90% CI)
[8] = Post-Echinacea/Pre-Echinacea, GMR (90% CI), listed as Midazolam
[9] = midazolam 8 mg oral, 28 days of echinacea, P > 0.05

With `Cc1cccc(C)c1OCC(=O)N[C@@H](Cc1ccccc1)[C@@H](O)C[C@H](Cc1ccccc1)NC(=O)[C@H](C(C)C)N1CCCNC1=O` [lopinavir] the Tmax [1] was 2 h, the “T ½” value [2] was 9.5 (7.4–11.6) hr and the Tmax [3] was 2 h.
With `CC(C)c1nc(CN(C)C(=O)N[C@H](C(=O)N[C@@H](Cc2ccccc2)C[C@H](O)[C@H](Cc2ccccc2)NC(=O)OCc2cncs2)C(C)C)cs1` [ritonavir] the “T ½” value [2] was 5.34 (4.46–6.22) hr and the Tmax [2] was 1.8 (0–4.0) ^c hr.
For `Cc1ncc2n1-c1ccc(Cl)cc1C(c1ccccc1F)=NC2` [midazolam], the “Increase in intestinal availability of midazolam” value ([4]; after E purpurea 1600 mg total daily dose for 8 days) is listed as 85%, the “Increase in oral availability of midazolam” value ([4]; after echinacea 400 mg 4 times daily for 8 days, P = 0.028) is listed as roughly 43% and the Cl/F ([5]; Post-Echinacea (28 days), midazolam 8 mg oral) is listed as 77 (55–98) mL/hr. The Tmax ([5]; Post-Echinacea (28 days), midazolam 8 mg oral, median (range)) was 0.5 (0.5–1.5) ^c hr, the “AUC0-∞ geometric mean ratio” value [5, 7] was 0.73 (0.61, 0.85) and the “Cl/F geometric mean ratio” value [5, 7] was 1.37 (1.10, 1.63). For the same compound, the “Cmax geometric mean ratio” value [5, 7] was 0.77 (0.58–0.96), the “T ½ geometric mean ratio” value [5, 7] was 0.55 (0.40, 0.70) and the “AUC0-∞ geometric mean ratio” value [5, 8] was 0.73 (0.61–0.85). For the same compound, the “Cl/F geometric mean ratio” value [5, 8] was 1.37 (1.10–1.63), the “T ½ geometric mean ratio” value [5, 8] was 0.55 (0.40–0.70) and the Cl/F ([5]; Pre-Echinacea, midazolam 8 mg oral) was 56 (46–66) mL/hr. The “Change in midazolam exposure after E purpurea” value ([5]; after 28 days of E purpurea, P = 0.008) was −27%, the “Increase in midazolam apparent oral clearance after E purpurea” value ([5]; after 28 days of E purpurea, P = 0.02) was 37% and the “Reduction of midazolam half-life after E purpurea” value ([5]; after 28 days of E purpurea, P = 0.051) was 45%. The Tmax ([5]; human, plasma, po, 8 mg) was 0.5 h, the AUC(0-inf) ([5]; human, plasma, po, 8 mg, Post-Echinacea (28 days, 500 mg three times daily)) was 104 ng·h/mL and the AUC(0-inf) ([5]; human, plasma, po, 8 mg, Pre-Echinacea) was 143 ng·h/mL. For the same compound, the “Change of Cmax after echinacea administration” value [5, 9] was “unchanged” and the “Change of Tmax after echinacea administration” value [5, 9] was “unchanged”.
In the case of `CC(C)(C)NC(=O)[C@@H]1C[C@@H]2CCCC[C@@H]2CN1C[C@@H](O)[C@H](Cc1ccccc1)NC(=O)[C@H](CC(N)=O)NC(=O)c1ccc2ccccc2n1` [saquinavir], the “Decrease in AUC of saquinavir” value [6] is given as 51%.
